Experimental data published in patent US20130225508A1, “PEPTIDE CAPABLE OF BINDING TO IMMUNOGLOBULIN” (priority 2010, published 2013).

Columns and labels:
[1] = test system: monoclonal antibody cocktail-induced arthritis; test: Mice monoclonal antibody cocktail-induced arthritis model; format: in vivo, Mice (BALB/c Cr Slc)
Description: 1-1 Mice (BALB/c Cr Slc (SPF)) were used to examine arthritis suppressing effects of peptides of the present invention on monoclonal antibody cocktail-induced arthritis. Mice were fed normal chow and allowed to acclimate for 6 days before used in experiments.
Arthritis was caused by intravenous administration of 2 mg/animal of an arthritis-inducing monoclonal antibody cocktail and three days later, intraperitoneal administration of 50 μg/animal of lipopolysaccharide (LPS). Peptides R1 and R9 each were intraperitoneally administered at a dose of 10 mg/kg once a day from the day following the LPS administration (day 4) to day 14. Peptide SP4 and the variant of peptide SP4 composed of the corresponding D-amino acids (except for glycine) each were intraperitoneally administered at a dose of 10 or 100 mg/kg once a day from the day following the LPS administration (day 4) to day 14. […] A control group was given physiological saline at 10 mL/kg once a day from day 4.
To forty 7-week-old mice, the arthritis-inducing monoclonal antibody cocktail was intravenously administered at a dose of 2 mg/animal on day 0, and LPS was intraperitoneally administered at a dose of 50 μg/animal on day 3.
[…] As a control, physiological saline was intraperitoneally administered once a day from day 4, and the volume of administration was 10 ml/kg. […] Needles ([…]; Terumo) and syringes (1.0-ml capacity; Terumo) were used for administration.
Observation of clinical score was performed on even days from day 0 to day 14 as follows. The total score for the extremities was set to a maximum of 12. Visual observation of swelling of the legs was performed.
0: normal joint 1: slight inflammation and redness 2: serious erythema and swelling over the whole limb and preventing the use of the limb 3: deformation of the limb or joint accompanied by ankylosis, joint stiffness, loss of function
Results of examinations are expressed by mean value±standard error and were analyzed using EXSAS (Version 7.1.6, Arm Systex Co., Ltd.). Clinical scores were subjected to Wilcoxon's test. Quantitative data, such as body weights and leg volumes, were subjected to Bartlett's test, followed by Dunnett's multiple comparison test if the variance was uniform or by Steel's multiple comparison test if the variance was not uniform. The level of significance was set at 5% on both sides.

IL-1β in plasma = IL-1β in plasma of adjuvant arthritis rats (ELISA); format: in vivo, rat; details: day 21 post-adjuvant
Description: (§1) TNF-α and IL-1β in plasma were measured in a double-point method using the TNF-α ELISA kit (Lbis® TNF-α-rat) and the IL-1β ELISA kit (Quantikine® Rat IL-1β/IL-1F2).
(§2) On day 21 post-adjuvant, the animals were subjected to autopsy, and plasma was prepared to measure IL-1β and TIN-α concentrations in plasma. In all the groups for which measurements were made, the concentration of TNF-α was below the detection limit (8 pg/mL).

TNF-α in plasma = TNF-α in plasma of adjuvant arthritis rats (ELISA); format: in vivo, rat; details: day 21 post-adjuvant
Description: as §1, §2

[2] = day 6, 0.15 mg/kg intraperitoneal once a day from day 4
[3] = day 14, 0.15 mg/kg intraperitoneal once a day from day 4
[4] = 0.15 mg/kg oral, pre-administered group

In the case of CN(Cc1cnc2nc(N)nc(N)c2n1)c1ccc(C(=O)N[C@@H](CCC(=O)O)C(=O)O)cc1 [Methotrexate], the hind-limb volume ([1]; day 0, 0.15 mg/kg intraperitoneal group) was 0.216 cm^3, the hind-limb volume [1, 2] was 0.381 cm^3 and the “increasing rate of hind-limb volume (volume on day 0 = 100%)” value (shortened to “increasing rate … (volume on day 0 = 100%)”) [1, 2] was 176.2%. The hind-limb volume ([1]; day 8 (highest value), 0.15 mg/kg intraperitoneal once a day from day 4) was 0.441 cm^3, the “increasing rate … (volume on day 0 = 100%)” value ([1]; day 8 (highest), 0.15 mg/kg intraperitoneal once a day from day 4) was 204.2% and the clinical score ([1]; day 12, 0.15 mg/kg intraperitoneal once a day from day 4) was 8.2±0.9. For the same compound, the clinical score [1, 3] was 8.6±0.9, the hind-limb volume [1, 3] was 0.356 cm^3 and the “increasing rate … (volume on day 0 = 100%)” value [1, 3] was 165.4%. The “Concentrations of IL-1β in plasma” value (IL-1β in plasma; 0.15 mg/kg oral from day 10) was 22.6 ± 11.3 pg/mL, the “Concentrations of IL-1β in plasma” value (IL-1β in plasma; [4]) was 18.4 ± 4.2 pg/mL and the “Concentrations of TNF-α in plasma” value (TNF-α in plasma; 0.15 mg/kg oral from day 10) was “N.D (N.D.: below detection limit)”. For the same compound, the “Concentrations of TNF-α in plasma” value (TNF-α in plasma; [4]) was “N.D (N.D.: below detection limit)”.
